Assay [1] has as its system Drosophila Chk1 or p53 mutant larvae. In words: Drosophila screen for agents that increase the sensitivity of mutant larvae to radiation (NCI Diversity Set I and Natural Products Set). The class given is in vivo. The note with it: irradiated Drosophila Chk1 or p53 mutant larvae. The text has this:
The Diversity Set I from the NCI-DTP, which is comprised of 1990 molecules chosen for chemical structural diversity and not for biological activity was screened using the Drosophila screen (U.S. Pat. No. 7,695,899).
Table 1. […] A total of 2225 molecules in Diversity Set I (n=1990) and Natural Products Set (n=235) libraries from the NCI-DTP were screened for agents that increased the sensitivity of Drosophila Chk1 or p53 mutant larvae to radiation. […] MT=microtubule; DS=double strand; topo=topoisomerase; NT=nucleotide
The Natural Product Set, also from the NCI-DTP, which contains 235 small molecules derived from natural sources was selected next. These molecules were identified initially in extracts from plants, microbes and marine organisms, but are now synthesized to sufficient purity for distribution by the NCI as plated sets.
(§1) The screen was performed using irradiated mutant larvae. Hits from the screen were defined as those that reduced the survival of IRRADIATED larvae compared to the population of drugs being tested (approximately 80 molecules at a time) or compared to DMSO controls in the re-test. A hit could therefore act by enhancing the effect of radiation, or by simply killing larvae as a single agent, or both. To distinguish among these possibilities, hits from the screen were re-tested against larvae with and without irradiation.

In another assay the test system is H157 lung cancer cells. In words: CellTiter-Glo Luminescent Cell Viability Assay, Streptovitacin with ionizing radiation, H157. The format is cell-based, human. The note with it: drug added 24 hr before irradiation. The protocol: FIG. 15 depicts CI values for Streptovitacin A and radiation on H157 lung cancer cells.
For FIG. 15 CellTiter-Glo® Luminescent Cell Viability Assay (Promega G7570) were used to determine the effect of Streptovitacin (concentrations in uM) in combination with ionizing radiation (in Gy, X-axis). The drug was added 24 hr before irradiation. (A) Faction affected (Fa) determined by the following formula 1−(x/y) where x is the experimental sample and y is the no Bouvardin/no drug control) (B) Corresponding CI values. Cells were irradiated in a Faxitron X-ray cabinet x-ray system (Lincolnshire, Ill.) set at 115 kV and 5 mA (producing 5.33 Rads/sec or 3.2 Gy/min) Note that this X-ray machine, produces a higher dose rate (lower exposure time) than the X-ray machine used on H157 cells in FIG. 18. Even with the same settings, higher IR doses are needed to achieve the same Fa. More important, combinatorial effects with drugs are similar if not identical on the two machines.
In general terms: ATP-based viability assays read luminescence as a measure of living cells.

Assay [2] concerns wild type Drosophila larvae. In words: Drosophila larval survival to adulthood (eclosion), drug with and without IR, wild type. The class given is in vivo. The note with it: wild type Drosophila larvae. The protocol:
as §1, with “To validate the identification of Bouvardin from the primary screen, the effect of this molecule on Drosophila larvae alone or in combination with radiation were assessed (FIG. 12). The” for “The”
(§2) In FIG. 12 survival after each treatment is expressed as the fraction of animals that emerged (“eclosed”) as viable adults. The averages have been normalized to the average fraction eclosed in no IR/drug control for the respective genotype. Error bars extend beyond fractional survival of 1.0 simply because of normalization. (A-C) Fraction eclosed for WT and grp and p53 mutants at 16 uM of Bouvardin, with and without IR. The data are averages of 3-8 biological replicates per sample. Dotted line on each graph denotes expected ‘fraction eclosed’ if drug and IR act additively. IR doses were 4000R for WT and grp and 3000R for p53 because of the higher radiation sensitivity of the latter. (D) Fraction eclosed for Minute mutants and yw controls after exposure to 0 (−IR) and 2000R (+IR) of X-rays. N ranged from 86-207 per genotype per treatment, in 3 biological replicates per sample. *=p<0.01; **=<0.001. 100R=1Gy. Error bar=1 standard deviation.
(§3) The activity of Bouvardin in Drosophila alone or in combination with ionizing radiation (IR) was assessed. Drug concentrations of 10-20 μM were used to approximate the conditions of the original screen. Third instar larvae were irradiated and cultured on medium containing drug. The survival of larvae was quantified 10 days later by measuring the rate of eclosion into adulthood. […] For example, IR alone reduces the eclosion of p53 mutants to 0.63±0.05 and 10 μM of drug reduces it to 0.82±0.15. The combination of Bouvardin and IR reduces eclosion to 0.49, nearly the exact number expected (0.63±0.05×0.82±0.15=0.51±0.10) if the two treatments produced an additive effect. The expected eclosion for additive effect of drug and radiation are denoted with a white dotted line in each graph.
(§4) Wild type flies were of the Sevelin stock. Mutants have been described before. p535A-1-4 results from targeted deletion of the gene, and is maintained and used as homogygotes. grpl (Chk1 mutants) results from a p-element insertion and is a genetic null. Homozygotes of the latter were identified by the lack of GFP marker on the balancer chromosome. Minute mutants were of the genotypes y[1]w[*]; P[w[+mC]=lacW]RpS131/CyO and P[lacW]RpL36G0471 w67c23/FM7a. Because Minute mutants were in yw or w background, y1w1 (Bloomington stock #1495) was used as ‘wild type’ control in these experiments.
Feeding stage 3rd instar larvae were irradiated as previously described (2). Briefly, 120 hr old larvae were rinsed to remove food and passed through sizing sieves to obtain animals of uniform size. Larvae were placed in a Petri dish and irradiated using a TORREX X-ray generator, set at 115 kV and 5 mA (producing 2.4 Rads/sec or 1.44 Gy/min) Irradiated larvae were then cultured on cornmeal-agar media (2) containing drug or DMSO carrier. […]

The subject of assay [3] is p53 mutant Drosophila larvae. Description: Drosophila larval survival to adulthood (eclosion), drug with and without IR, p53 mutants. The conditions noted are these: drug alone (without radiation), wide range of doses. The class given is in vivo. The procedure:
as §1, with “To validate the identification of Bouvardin from the primary screen, the effect of this molecule on Drosophila larvae alone or in combination with radiation were assessed (FIG. 12). The” for “The”
as §2, §3, §4
Feeding stage 3rd instar larvae were irradiated as previously described (2). Briefly, 120 hr old larvae were rinsed to remove food and passed through sizing sieves to obtain animals of uniform size. Larvae were placed in a Petri dish and irradiated using a TORREX X-ray generator, set at 115 kV and 5 mA (producing 2.4 Rads/sec or 1.44 Gy/min) Irradiated larvae were then cultured on cornmeal-agar media (2) containing drug or DMSO carrier. In all experiments using human cells, cells in 96-well plates were irradiated with a RS2000 Biological Irradiator (Rad Source Technologies, Inc.) delivering 1 Gy/min.

The subject of assay [4] is Det562 Head and Neck Squamous Cell Carcinoma cells. In words: Streptovitacin A alone and in combination with taxol on human cancer cells. The format is cell-based. The conditions noted are these: at a wide range of doses. The protocol: FIG. 11 depicts that streptovitacin A synergizes with taxol on Det562 Head and Neck Cancer cells. Concentrations for streptovitacin/taxol are shown. CI=1 indicates additive effects; CI>1 indicates antagonistic effects; CI<1 indicates synergy. The y-axis is “Combination Index” (CI).
The effect of streptovitacin A on human cancer cells alone and in combination with taxol was tested.
FIG. 11 depicts that at a wide range of doses the two drugs are synergistic (CI<1) in Det562 Head and Neck Squamous Cell Carcinoma cells.

Assay [5] relates to cells from human squamous cell carcinoma, melanoma, non-small cell lung carcinoma, malignant gliomas and small cell lung cancer. The note with it: Topotecan and its analogs; preclinical models; cited from earlier work.
In assay [6] the test system is xenografts of Rhabdomyosarcoma. The conditions noted are these: cited from earlier work.
A further assay deals with Det562 cells. In words: CellTiter-Glo Luminescent Cell Viability Assay, Bouvardin with Taxol, Det562. The class given is cell-based, human. The conditions noted are these: Det562 versus FaDu.

Protocol for Det562 cells: “Combination Index” computation. Combination Indices were calculated using CalcuSyn software (Biosoft), which uses the method of Chou and Talalay. This method first computes drug-induced effect using the Hill Equation: where E is the measured effect; C is the drug concentration; Emax is the full range of drug effect, usually at or near 100%; IC50 is the drug concentration producing the median effect of 50%; and n is the curve shape parameter describing the steepness of the concentration-effect relationship. The Chou and Talalay method then linearizes the Hill Equation by logarithmic transformation as: where fu is the fraction of cells left unaffected after drug exposure, fa is the fraction of cells affected by the exposure, C is the drug concentration used, Cm is the concentration to achieve the median effect, and n is the curve shape parameter. Cm and n are equivalent to IC50 and n, respectively, in the Hill Equation. The values of n (obtained from the slope), nlog(Cm) (obtained from the absolute value of the intercept), and, therefore, Cm are obtained by plotting log(fu−1−1) versus log(C). […]
The growth inhibitory effects of Bouvardin with Taxol were evaluated using CellTiter-Glo® Luminescent Cell Viability Assay (Promega G7570). […] Luminescence of each well was measured using an automated plate reader.

As for `CC[C@@]1(O)C(=O)OCc2c1cc1n(c2=O)Cc2cc3ccccc3nc2-1` [20-S Camptothecin], the “Reproducible hit that increased the sensitivity of larvae to radiation; screen in which identified” value in assay [1] is on record as “Camptothecin (1)”.
Same read-out and setting: the same measure for Bleomycin: “Bleomycin (2)”.
As to `C[C@H]1C[C@@](C)(O)C[C@@H]([C@H](O)CC2CC(=O)NC(=O)C2)C1=O` [Streptovitacin A, streptovitacin A], the “interaction of drug with radiation” value with H157 lung cancer cells is given as “synergize at most combinations tested”. The “manner in which drug and ionizing radiation act together to kill larvae” value in assay [2] is “act synergistically”. Moreover, in assay [2] (10 μM drug + IR), the “observed average for the combination versus expected additive value” is listed as “significantly lower than the expected additive value”. Further, the results for the “fraction of p53 mutant larvae that survive to adulthood versus wild type larvae” value in assay [3] and in assay [3] (listed as streptovitacin A) were “lower than the fraction of wild type larvae that survive to adulthood” and “kills p53 mutant larvae selectively over wild type larvae”, respectively. The “Combination Index (CI), streptovitacin A with taxol” value in assay [4] is reported as under 1.
With `C[C@H]1CC[C@@H](C(C)(C)O)CC2=C1CC[C@@H]2C` [Guaiol], the “Reproducible hit that increased the sensitivity of larvae to radiation; screen in which identified” value in assay [1] was “Guaiol (2)”.
On to `CC[C@@]1(O)C(=O)OCc2c1cc1n(c2=O)Cc2cc3c(CN(C)C)c(O)ccc3nc2-1` [Topotecan], for which the interaction with radiation result in assay [5] is “synergize with radiation”; in assay [6] it was “Synergy between Topotecan and radiation has been confirmed”.
Turning to `CC(=O)O[C@H]1C(=O)[C@@]2(C)[C@H]([C@H](OC(=O)c3ccccc3)[C@]3(O)C[C@H](OC(=O)[C@H](O)[C@@H](NC(=O)c4ccccc4)c4ccccc4)C(C)=C1C3(C)C)[C@]1(OC(C)=O)CO[C@@H]1C[C@@H]2O` [Taxol, paclitaxel, reference compound], the “sensitivity of cells to Taxol alone” value in the assay on Det562 cells is listed as “more sensitive to Taxol alone than FaDu cells”.
As to `CC[C@H](C)[C@H]1NC(=O)[C@@H](NC(=O)[C@@H](CC(C)C)N(C)C(=O)[C@@H]2CCCN2C(=O)C(C)O)[C@@H](C)OC(=O)[C@H](Cc2ccc(OC)cc2)N(C)C(=O)[C@@H]2CCCN2C(=O)[C@H](CC(C)C)NC(=O)[C@@H](C)C(=O)[C@H](C(C)C)OC(=O)C[C@@H]1O` (stereo partly shown) [Didemnin B], in assay [1], the “Reproducible hit that increased the sensitivity of larvae to radiation; screen in which identified” value is listed as “Didemnin B (2)”.

(Values after patent publication US20150343016A1, “CHEMICAL ENTITIES AND THERAPEUTIC USES THEREOF” (The Regents of the University of Colorado, a body corporate, priority 2010, published 2015).)
